Legend:
C57/BL6 mice = test: Urinary glucose excretion test in C57/BL6 mice; format: in vivo; conditions: male C57/BL6 mice, 10 mg/Kg oral; for Glucose (excreted urine glucose): then 5 g/Kg glucose, total urine in 24 h, mean of 6 mice; for activity in urinary glucose excretion compared with compound A (Empagliflozin): 24 h urine, statement on Table 2
Method: Example 2: Urinary Glucose Excretion Test in C57/BL6 Mice
Adult male C57/BL6 mice with body weight over 20 g (Shanghai LSK Laboratory Animal Ltd) were orally dosed with test compound I (10 mg/Kg) after which the animals were fed with 5 g/Kg glucose. The animals were housed in metabolic cages to collect total urine in 24 h. The cage was washed with 5 mL of normal saline. Water and food were provided to the mice ad libitum during the 24 h period. The urine samples were immediately frozen after collection, and the glucose levels were then determined. The total amount of excreted urine glucose was calculated based on total amount of urine, and then converted to amount of excreted glucose (mg) per 200 mg body weight in 24 h based on mouse body weight. The result is shown in Table 2 (mean values of 6 mice).

SGLT-2 = molecular target: T1, SGLT-2 (Homo sapiens, UniProt P31639); test: [14C]-AMG absorption in stable SGLT2 expressing Flp-in CHO cells (SGLT-2 activity screening assay); format: cell-based; conditions: 14C-AMG uptake, 37° C. 1 h, 1% DMSO
T1 sequence (P31639 1-672): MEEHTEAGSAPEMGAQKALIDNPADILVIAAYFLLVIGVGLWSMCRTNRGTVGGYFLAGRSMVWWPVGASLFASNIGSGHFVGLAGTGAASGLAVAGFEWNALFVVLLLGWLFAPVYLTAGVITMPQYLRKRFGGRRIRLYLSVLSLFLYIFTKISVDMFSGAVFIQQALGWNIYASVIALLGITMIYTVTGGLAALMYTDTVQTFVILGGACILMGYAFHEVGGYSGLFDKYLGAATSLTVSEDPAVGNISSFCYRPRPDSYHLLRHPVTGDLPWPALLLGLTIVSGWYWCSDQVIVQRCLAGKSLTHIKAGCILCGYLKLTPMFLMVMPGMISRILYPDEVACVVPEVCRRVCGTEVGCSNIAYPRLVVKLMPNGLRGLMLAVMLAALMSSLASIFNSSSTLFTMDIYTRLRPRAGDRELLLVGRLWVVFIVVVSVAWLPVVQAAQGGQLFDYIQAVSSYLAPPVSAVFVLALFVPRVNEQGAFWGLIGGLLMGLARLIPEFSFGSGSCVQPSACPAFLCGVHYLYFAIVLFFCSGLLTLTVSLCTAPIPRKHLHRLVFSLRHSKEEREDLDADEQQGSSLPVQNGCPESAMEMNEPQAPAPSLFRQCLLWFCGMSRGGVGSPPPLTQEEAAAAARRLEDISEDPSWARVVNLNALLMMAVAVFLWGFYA
Description: (§1) Example 1: [^14C]-AMG Absorption in Stable SGLT1 and SGLT2 Expressing Flp-in CHO Cells (SGLT-1 and SGLT-2 Activity Screening Assay)
(§2) SGLT-1 and SGLT-2 cDNA clones were purchased from OriGene. After sequencing verification, the expression vectors were constructed based on pcDNA5/FRT using conventional molecular biology method. The expression vector was transfected into Flp-in CHO cells using Lipofectamin 2000. The transfected cells were subject hygromycin selection. The single clones of cells were selected by serial dilutions 4-5 weeks after transfection. The expression of SGLT-1 ? SGLT-2 were confirmed by RT-PCR and functional assay and cell line with strong signal was selected for subsequent study.
(§3) Culture of stable SGLT-1 and SGLT-2 expressing Flp-in CHO cell line: the culture media contain F12 medium (Invitrogen), 500 μg/ml hygromycin (Calbiochem) and 10% FBS (Invitrogen). Upon 80% confluency, the cells in the T75 flask were washed three times with PBS (Invitrogen), and 5 mL of Trpsin-EDTA solution (Invitrogen) was then added. The flask was gently rotated so that all the cells were submerged in the digestion solution. After the cells detach, 10 mL of culture medium was added and single cell suspension was prepared by pipetting up and down. The cell concentration was adjusted to 3×10^5/mL, 100 μL/well was added onto clear bottom 96-well plate (Corning).
(§4) The cells were ready for absorption assay once they attached after overnight culture. 12 h after cell plating, the cells were washed once with 150 μL/well absorption solution KRH-NMG (120 mM NMG, 4.7 mM KCl, 1.2 mM MgCl2, 2.2 mM CaCl2, 10 mM HEPES, pH 7.4 1 mM Tris). The solution was then removed from the well. 2.5 μCi/mL ^14C labeled AMG (PerkinElmer) Buffer KRH-Na+ (120 mM NaCl, 4.7 mM KCl, 1.2 mM MgCl2, 2.2 mM CaCl2, 10 mM HEPES, pH 7.4 1 mM Tris) was added at […] after washing with Buffer KRH-Na+ and KRH-NMG. The corresponding compound I was immediately added at 5 μL/well, ensuring the concentration of Dimethyl Sulfoxide was 1% (v/v). The plate was subsequently incubated at 37° C. for 1 h, after which 150 μL of ice cold wash buffer (120 mM NaCl, 4.7 mM KCl, 1.2 mM MgCl2, 2.2 mM CaCl2, 10 mM HEPES, 0.5 mM phlorizin, pH 7.4 1 mM Tris) was immediately added to terminate the reaction. Each well was washed three times with wash buffer and finally the solution was removed. Caution was taken to avoid cell detachment during the procedure. 20 μL/well of Lysis Buffer (0.1 mM NaOH) was added, the plate was vortexed at 900 rpm for 5 min. 80 μL/well of scintillation solution Microsint40 was added, and vortexed at 900 rpm for 5 min. The radioactivity was assayed using MicroBeta Trilux (PerkinElmer). The data was analyzed and IC50 of the compounds was calculated using XL-fit software.

SGLT-1 = molecular target: T2, SGLT-1 (Homo sapiens, UniProt P13866); test: [14C]-AMG absorption in stable SGLT1 expressing Flp-in CHO cells (SGLT-1 activity screening assay); format: cell-based; conditions: 14C-AMG uptake, 37° C. 1 h, 1% DMSO
T2 sequence (P13866 1-664): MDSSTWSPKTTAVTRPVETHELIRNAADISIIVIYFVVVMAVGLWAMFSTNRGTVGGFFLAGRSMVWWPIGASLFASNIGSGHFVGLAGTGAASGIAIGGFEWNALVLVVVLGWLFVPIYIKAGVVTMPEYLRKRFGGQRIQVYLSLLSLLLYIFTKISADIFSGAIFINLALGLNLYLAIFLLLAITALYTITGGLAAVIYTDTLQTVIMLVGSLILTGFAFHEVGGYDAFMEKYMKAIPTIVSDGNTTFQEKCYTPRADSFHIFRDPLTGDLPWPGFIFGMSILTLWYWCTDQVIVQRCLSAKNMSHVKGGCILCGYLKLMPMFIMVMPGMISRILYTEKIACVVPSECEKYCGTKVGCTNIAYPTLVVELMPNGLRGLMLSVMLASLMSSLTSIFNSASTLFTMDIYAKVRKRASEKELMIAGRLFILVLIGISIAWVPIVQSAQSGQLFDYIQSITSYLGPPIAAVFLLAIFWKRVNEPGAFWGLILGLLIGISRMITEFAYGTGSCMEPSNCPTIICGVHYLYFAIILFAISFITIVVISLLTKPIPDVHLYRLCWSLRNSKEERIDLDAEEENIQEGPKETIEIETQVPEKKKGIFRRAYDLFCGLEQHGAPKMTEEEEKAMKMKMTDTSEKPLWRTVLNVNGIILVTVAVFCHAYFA
Description: as §1, §2, §3, §4

SMILES	Glucose (excreted urine glucose) (C57/BL6 mice)	IC50 (SGLT-2)	IC50 (SGLT-1)	activity in urinary glucose excretion compared with compound A (Empagliflozin) (C57/BL6 mice)
OC[C@H]1O[C@@H](c2ccc(Cl)c(Cc3ccc(OCC4OCc5ccccc54)cc3)c2)[C@H](O)[C@@H](O)[C@@H]1O (stereo partly drawn) [Compound I-36, (2S,3R,4R,5S,6R)-2-(4-chloro-3-(4-((1,3-dihydroisobenzofuran-1-yl)methoxy)benzyl)phenyl)-6-(hydroxymethyl)tetrahydro-2H-pyran-3,4,5-triol]	1723.1 mg/200 mg body weight/24 h	1 nM	584 nM	–
OC[C@H]1O[C@@H](c2ccc(Cl)c(Cc3ccc(O[C@H]4CCOC4)cc3)c2)[C@H](O)[C@@H](O)[C@@H]1O [A, Empagliflozin, reference compound]	1536.5 mg/200 mg body weight/24 h	6.6 nM	–	–
Cc1ccc([C@@H]2O[C@H](CO)[C@@H](O)[C@H](O)[C@H]2O)cc1Cc1ccc(OCC2OCc3ccccc32)cc1 (stereo partly drawn) [Compound I-43, (2S,3R,4R,5S,6R)-2-(3-(4-((1,3-dihydroisobenzofuran-1-yl)methoxy)benzyl)-4-methylphenyl)-6-(hydroxymethyl)tetrahydro-2H-pyran-3,4,5-triol]	–	1.7 nM	322 nM	–
CC1(COc2ccc(Cc3cc([C@@H]4O[C@H](CO)[C@@H](O)[C@H](O)[C@H]4O)ccc3Cl)cc2)Cc2ccccc2O1 (single isomer, unassigned) [Compound I-107]	–	> 2000 nM	31400 nM	–
CC1(COc2ccc(Cc3cc([C@@H]4O[C@H](CO)[C@@H](O)[C@H](O)[C@H]4O)ccc3Cl)cc2)Cc2ccccc2O1 (single isomer, unassigned) [Compound I-106]	–	18.2 nM	700 nM	–
OC[C@H]1O[C@@H](c2ccc(Cl)c(Cc3ccc(OCC4Cc5ccccc5O4)cc3)c2)[C@H](O)[C@@H](O)[C@@H]1O (stereo partly drawn) [Compound I-22, (2S,3R,4R,5S,6R)-2-(4-chloro-3-(4-((2,3-dihydrobenzofuran-2-yl)methoxy)benzyl)phenyl)-6-(hydroxymethyl)tetrahydro-2H-pyran-3,4,5-triol]	3106.6 mg/200 mg body weight/24 h	4.1 nM	2100 nM	significantly more active than compound A
OC[C@H]1O[C@@H](c2ccc(Cl)c(Cc3ccc(OCc4cc5ccccc5o4)cc3)c2)[C@H](O)[C@@H](O)[C@@H]1O [Compound I-1, (2S,3R,4R,5S,6R)-2-(3-(4-(benzofuran-2-ylmethoxy)benzyl)-4-chlorophenyl)-6-(hydroxymethyl)tetrahydro-2H-pyran-3,4,5-triol]	1646.9 mg/200 mg body weight/24 h	7 nM	–	significantly more active than compound A
OC[C@H]1O[C@@H](c2cccc(Cc3ccc(OCC4Cc5ccccc5O4)cc3)c2)[C@H](O)[C@@H](O)[C@@H]1O (stereo partly drawn) [Compound I-30, (2S,3R,4R,5S,6R)-2-(3-(4-((2,3-dihydrobenzofuran-2-yl)methoxy)benzyl)phenyl)-6-(hydroxymethyl)tetrahydro-2H-pyran-3,4,5-triol]	–	125 nM	9370 nM	–
COc1ccc([C@@H]2O[C@H](CO)[C@@H](O)[C@H](O)[C@H]2O)cc1Cc1ccc(OCC2Cc3ccccc3O2)cc1 (stereo partly drawn) [Compound I-29, (2S,3R,4R,5S,6R)-2-(3-(4-((2,3-dihydrobenzofuran-2-yl)methoxy)benzyl)-4-methoxyphenyl)-6-(hydroxymethyl)tetrahydro-2H-pyran-3,4,5-triol]	–	59 nM	220 nM	–
Cc1ccc([C@@H]2O[C@H](CO)[C@@H](O)[C@H](O)[C@H]2O)cc1Cc1ccc(OCc2cc3ccccc3o2)cc1 [Compound I-3, (2S,3R,4R,5S,6R)-2-(3-(4-(benzofuran-2-ylmethoxy)benzyl)-4-methylphenyl)-6-(hydroxymethyl)tetrahydro-2H-pyran-3,4,5-triol]	–	5.6 nM	320 nM	–
Cc1ccc([C@@H]2O[C@H](CO)[C@@H](O)[C@H](O)[C@H]2O)cc1Cc1ccc(OCC2(C)Cc3ccccc3O2)cc1 (single isomer, unassigned) [Compound I-110]	–	12.9 nM	244 nM	–

From patent US9914724B2, “C-aryl glycosid derivatives, pharmaceutical composition, preparation process and uses thereof” (SHANGHAI DE NOVO PHARMATECH CO. LTD., priority 2014, dated 2018)
